Test results reported in patent US11136313B2, “Compounds, compositions, and methods for modulating CFTR” (Proteostasis Therapeutics, Inc., priority 2015, dated 2021).

Each molecule was assayed against T1, ΔF508-CFTR (Homo sapiens, UniProt P13569, DEL508-508) (assay: hBE equivalent current (Ieq) assay: AUC of equivalent chloride current after forskolin/VX-770 in primary lung epithelial cells homozygous for ΔF508). Conditions: relative to CFTR amplifier (Compound A)+VX-809 (3 uM), compound at 10 uM and Compound A at 3 uM, 24 h treatment.
T1 construct: Primary lung epithelial cells homozygous for the Cystic Fibrosis-causing ΔF508 mutation were differentiated for a minimum of 4 weeks; endogenous in cells; host or cells: primary lung epithelial cells (hBE) homozygous for ΔF508, differentiated at an air-liquid interface
T1 sequence (P13569 with tags, fused parts or gaps DEL508-508): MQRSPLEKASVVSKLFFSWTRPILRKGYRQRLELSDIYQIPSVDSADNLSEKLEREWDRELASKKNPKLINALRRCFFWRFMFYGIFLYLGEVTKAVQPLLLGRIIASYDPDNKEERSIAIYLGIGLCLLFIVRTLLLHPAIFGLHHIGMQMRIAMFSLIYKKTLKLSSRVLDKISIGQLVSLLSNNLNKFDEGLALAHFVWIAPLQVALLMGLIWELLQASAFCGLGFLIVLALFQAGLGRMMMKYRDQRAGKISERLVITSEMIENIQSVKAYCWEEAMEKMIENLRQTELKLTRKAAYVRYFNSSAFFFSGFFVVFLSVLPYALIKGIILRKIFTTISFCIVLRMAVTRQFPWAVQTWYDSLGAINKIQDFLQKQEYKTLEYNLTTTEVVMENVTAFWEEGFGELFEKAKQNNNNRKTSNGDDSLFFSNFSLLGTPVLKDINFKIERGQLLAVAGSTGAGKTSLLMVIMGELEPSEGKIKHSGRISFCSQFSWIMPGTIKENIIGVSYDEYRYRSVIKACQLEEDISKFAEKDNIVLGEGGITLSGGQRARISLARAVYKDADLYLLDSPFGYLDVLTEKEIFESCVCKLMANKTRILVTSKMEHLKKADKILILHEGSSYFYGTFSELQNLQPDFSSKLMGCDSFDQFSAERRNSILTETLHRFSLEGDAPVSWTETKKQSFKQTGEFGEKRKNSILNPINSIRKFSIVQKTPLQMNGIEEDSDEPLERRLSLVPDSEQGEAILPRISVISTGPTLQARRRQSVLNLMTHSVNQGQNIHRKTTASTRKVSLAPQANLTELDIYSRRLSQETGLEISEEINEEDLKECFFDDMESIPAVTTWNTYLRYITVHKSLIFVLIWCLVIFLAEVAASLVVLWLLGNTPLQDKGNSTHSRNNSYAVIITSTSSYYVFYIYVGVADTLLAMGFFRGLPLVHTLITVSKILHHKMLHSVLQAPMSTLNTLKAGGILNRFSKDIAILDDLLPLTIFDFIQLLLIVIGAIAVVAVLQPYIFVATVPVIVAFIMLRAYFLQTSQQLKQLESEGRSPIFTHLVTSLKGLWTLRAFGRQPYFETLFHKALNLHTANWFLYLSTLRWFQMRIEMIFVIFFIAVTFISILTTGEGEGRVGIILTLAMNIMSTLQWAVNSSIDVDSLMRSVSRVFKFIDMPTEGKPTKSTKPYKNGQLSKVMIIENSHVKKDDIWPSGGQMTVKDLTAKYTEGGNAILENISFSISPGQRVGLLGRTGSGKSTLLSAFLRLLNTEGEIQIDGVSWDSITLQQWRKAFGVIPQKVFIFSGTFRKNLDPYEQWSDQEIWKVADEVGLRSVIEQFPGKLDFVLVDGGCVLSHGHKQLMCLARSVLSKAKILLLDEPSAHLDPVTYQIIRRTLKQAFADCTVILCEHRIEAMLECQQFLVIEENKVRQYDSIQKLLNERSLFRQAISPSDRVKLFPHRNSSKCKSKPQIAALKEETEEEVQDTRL
Format: cell-based
Protocol: ii. hBE Equivalent Current (Ieq) Assay
Primary lung epithelial cells homozygous for the Cystic Fibrosis-causing ΔF508 mutation were differentiated for a minimum of 4 weeks in an air-liquid interface on Costar 24 well HTS filter plates prior to the equivalent current (Ieq) measurements. Cells were apically mucus-washed for 30 minutes 24 h prior to treatment with compounds. The basolateral media was removed and replaced with media containing the compound of interest diluted to its final concentration from DMSO stocks. Treated cells were incubated at 37° C. and 5% CO2 for 24 hours. At the end of the treatment period, the media was changed to the Ieq experimental solution for 2 hours before the experiment and plates are maintained in a CO2-free incubator during this period. The plates containing the cells were then placed in pre-warmed heating blocks at 36° C.±0.5 for 15 minutes before measurements are taken. The transepithelial voltage (VT) and conductance (GT) were measured using a custom 24 channel current clamp (TECC-24) with 24 well electrode manifold. The Ieq assay measurements were made following additions with standardized time periods: • 1. The baseline VT and GT values were measured for approximately 20 minutes. • 2. Benzamil was added to block ENaC for 15 minutes. • 3. Forskolin plus VX-770 were added to maximally activate ΔF508-CFTR for 27 minutes. • 4. Bumetanide was added to inhibit the NaK2Cl cotransporter and shut-off secretion of chloride.
The activity data captured was the area under the curve (AUC) for the traces of the equivalent chloride current. The AUC was collected from the time of the forskolin/VX-770 addition until the inhibition by bumetanide addition. Correction in response to compound treatment was scored as the increase in the AUC for compound-treated samples over that of vehicle-treated samples.
(+ indicates activity<50% of an CFTR amplifier (Compound A)+VX-809 (3 uM) with compound at 10 uM and Compound A at 3 uM; ++ indicates activity>50% of CFTR amplifier+VX-809 (3 uM) with compound at 10 uM and Compound A at 3 uM.
With `Cc1cccc(C)c1COc1ccc(C)c2nc(-c3sc4ccccc4c3C)cc(C(=O)[O-])c12.[Na+]` [Compound 305] the Activity was “++ (activity>50% of CFTR amplifier+VX-809 (3 uM) with compound at 10 uM and Compound A at 3 uM)”. In the case of `Cc1c(-c2cc(C(=O)O)c3c(C)ccc(C)c3n2)oc2ccccc12` [Compound 31, 5,8-Dimethyl-2-(3-methyl-1-benzofuran-2-yl)quinoline-4-carboxylic acid], the Activity is reported as “++ (activity>50% of CFTR amplifier+VX-809 (3 uM) with compound at 10 uM and Compound A at 3 uM)”. `Cc1c(-c2cc(C(=O)[O-])c3c(O[C@@H]4CCC[C@H](C)C4)ccc(C)c3n2)sc2ccccc12.[Na+]` [Compound 218, Sodium 8-Methyl-2-(3-methyl-1-benzothiophen-2-yl)-5-[[(1R,3S)-3-methylcyclohexyl]oxy]quinoline-4-carboxylate] was tested, and the Activity was “++ (activity>50% of CFTR amplifier+VX-809 (3 uM) with compound at 10 uM and Compound A at 3 uM)”. In the case of `Cc1c(-c2cc(C(=O)[O-])c3c(O[C@@H](C)c4ccc(S(C)(=O)=O)cc4)ccc(C)c3n2)oc2ccccc12.[Na+]` [Compound 230, Sodium 5-[(1S)-1-(4-methanesulfonylphenyl)ethoxy]-8-methyl-2-(3-methyl-1-benzofuran-2-yl)quinoline-4-carboxylate], the Activity is reported as “++ (activity>50% of CFTR amplifier+VX-809 (3 uM) with compound at 10 uM and Compound A at 3 uM)”. In the case of `CCc1c(-c2cc(C(=O)O)c3c(C)ccc(C)c3n2)oc2ccccc12` [Compound 32, 2-(3-Ethyl-1-benzofuran-2-yl)-5,8-dimethylquinoline-4-carboxylic acid], the Activity is reported as “++ (activity>50% of CFTR amplifier+VX-809 (3 uM) with compound at 10 uM and Compound A at 3 uM)”. In the case of `Cc1oc2ccccc2c1-c1cc(C(=O)O)c2c(OCc3ccccc3)ccc(C3CC3)c2n1` [Compound 106, 5-(Benzyloxy)-8-cyclopropyl-2-(2-methyl-1-benzofuran-3-yl)quinoline-4-carboxylic acid], the Activity is reported as “++ (activity>50% of CFTR amplifier+VX-809 (3 uM) with compound at 10 uM and Compound A at 3 uM)”. In the case of `Cc1c(-c2cc(C(=O)O)c3cc(C(C)(C)C)cc(C)c3n2)oc2ccccc12` [Compound 27, 6-tert-Butyl-8-methyl-2-(3-methyl-1-benzofuran-2-yl)quinoline-4-carboxylic acid], the Activity is reported as “++ (activity>50% of CFTR amplifier+VX-809 (3 uM) with compound at 10 uM and Compound A at 3 uM)”. With `Cc1cc(Cl)cc2cc(C(=O)O)c(-c3cc4ccccc4o3)nc12` [Compound 12, 2-(1-Benzofuran-2-yl)-6-chloro-8-methylquinoline-3-carboxylic Acid] the Activity was “+ (activity<50% of an CFTR amplifier (Compound A)+VX-809 (3 uM) with compound at 10 uM and Compound A at 3 uM)”. In the case of `Cc1cc(C)c2nc(-c3cc4ccccc4o3)cc(C(=O)O)c2c1` [Compound 6, 2-(1-Benzofuran-2-yl)-6,8-dimethylquinoline-4-carboxylic acid], the Activity is reported as “+ (activity<50% of an CFTR amplifier (Compound A)+VX-809 (3 uM) with compound at 10 uM and Compound A at 3 uM)”. For `Cc1ccc2oc(-c3cc(C(=O)O)c4c(C)ccc(C)c4n3)c(C)c2c1` [Compound 127, 2-(3,5-Dimethylbenzofuran-2-yl)-5,8-dimethylquinoline-4-carboxylic acid], the Activity was “++ (activity>50% of CFTR amplifier+VX-809 (3 uM) with compound at 10 uM and Compound A at 3 uM)”. With `CCc1ccc(O[C@H]2CCC[C@H](C)C2)c2c(C(=O)[O-])cc(-c3sc4ccccc4c3C)nc12.[Na+]` [Compound 216, Sodium 8-Ethyl-2-(3-methyl-1-benzothiophen-2-yl)-5-[[(1S,3S)-3-methylcyclohexyl]oxy]quinoline-4-carboxylate] the Activity was “++ (activity>50% of CFTR amplifier+VX-809 (3 uM) with compound at 10 uM and Compound A at 3 uM)”. `Cc1cc(C)c2nc(-c3cc4ccccc4o3)c(C)c(C(=O)O)c2c1` [Compound 7, 2-(1-Benzofuran-2-yl)-3,6,8-trimethylquinoline-4-carboxylic acid] was tested, and the Activity was “+ (activity<50% of an CFTR amplifier (Compound A)+VX-809 (3 uM) with compound at 10 uM and Compound A at 3 uM)”. In the case of `Cc1c(-c2cc(C(=O)[O-])c3c(OC[C@H]4C[C@@](C)(O)C4)ccc(C)c3n2)sc2ccccc12.[Na+]` [Compound 320], the Activity is reported as “++ (activity>50% of CFTR amplifier+VX-809 (3 uM) with compound at 10 uM and Compound A at 3 uM)”. For `Cc1c(-c2cc(C(=O)[O-])c3c(OC4CC(C)(C)C4)ccc(C)c3n2)sc2ccccc12.[Na+]` [Compound 318], the Activity was “++ (activity>50% of CFTR amplifier+VX-809 (3 uM) with compound at 10 uM and Compound A at 3 uM)”. In the case of `CCc1ccc(OCc2ccc(-c3cnccn3)cc2)c2c(C(=O)O)cc(-c3csc4ccccc34)nc12` [Compound 192, 2-(1-Benzothiophen-3-yl)-8-ethyl-5-[[4-(pyrazin-2-yl)phenyl]methoxy]quinoline-4-carboxylic acid], the Activity is reported as “++ (activity>50% of CFTR amplifier+VX-809 (3 uM) with compound at 10 uM and Compound A at 3 uM)”. With `CCc1ccc(OCc2ccc([S+](C)[O-])cc2)c2c(C(=O)O)cc(-c3oc4ccccc4c3C)nc12` (stereo not shown) [Compound 144, 8-Ethyl-5-[(4-methanesulfinylphenyl)methoxy]-2-(3-methyl-1-benzofuran-2-yl)quinoline-4-carboxylic acid] the Activity was “++ (activity>50% of CFTR amplifier+VX-809 (3 uM) with compound at 10 uM and Compound A at 3 uM)”. In the case of `CCc1ccc(OCc2ccccc2)c2c(C(=O)O)cc(-c3[nH]c4ccccc4c3C)nc12` [Compound 146, 5-(Benzyloxy)-8-ethyl-2-(3-methyl-1H-indol-2-yl)quinoline-4-carboxylic acid], the Activity is reported as “++ (activity>50% of CFTR amplifier+VX-809 (3 uM) with compound at 10 uM and Compound A at 3 uM)”. For `Cc1ccc(OC(C)c2ccccc2)c2c(C(=O)[O-])cc(-c3cc4ccccn4c3)nc12.[Na+]` (stereo not shown) [Compound 328], the Activity was “++ (activity>50% of CFTR amplifier+VX-809 (3 uM) with compound at 10 uM and Compound A at 3 uM)”. In the case of `Cc1c(-c2nc(C(=O)O)c3c(OCc4ccccc4)ccc(C)c3n2)oc2ccccc12` [Compound 101, 5-(Benzyloxy)-8-methyl-2-(3-methyl-1-benzofuran-2-yl)quinazoline-4-carboxylic Acid], the Activity is reported as “++ (activity>50% of CFTR amplifier+VX-809 (3 uM) with compound at 10 uM and Compound A at 3 uM)”. In the case of `COc1ccccc1COc1ccc(C)c2nc(-c3sc4ccccc4c3C)cc(C(=O)[O-])c12.[Na+]` [Compound 292, Sodium 5-[(2-Methoxyphenyl)methoxy]-8-methyl-2-(3-methyl-1-benzothiophen-2-yl)quinoline-4-carboxylate], the Activity is reported as “++ (activity>50% of CFTR amplifier+VX-809 (3 uM) with compound at 10 uM and Compound A at 3 uM)”. In the case of `Cc1c(-c2cc(C(=O)O)c3c(O[C@H]4CC[C@H](c5ncco5)CC4)ccc(C)c3n2)oc2ccccc12` [Compound 197], the Activity is reported as “++ (activity>50% of CFTR amplifier+VX-809 (3 uM) with compound at 10 uM and Compound A at 3 uM)”. For `Cc1c(-c2cc(C(=O)O)c3cc(F)cc(C)c3n2)oc2ccccc12` [Compound 20, 6-Fluoro-8-methyl-2-(3-methylbenzofuran-2-yl)quinoline-4-carboxylic acid], the Activity was “++ (activity>50% of CFTR amplifier+VX-809 (3 uM) with compound at 10 uM and Compound A at 3 uM)”. In the case of `Cc1c(-c2cc(C(=O)O)c3cc(-c4ccccc4)cc(C)c3n2)oc2ccccc12` [Compound 37], the Activity is reported as “++ (activity>50% of CFTR amplifier+VX-809 (3 uM) with compound at 10 uM and Compound A at 3 uM)”. With `Cc1c(-c2cc(-c3cc(O)[nH]n3)c3c(O[C@H](C)c4ccccc4)ccc(C)c3n2)oc2ccccc12` [Compound 274] the Activity was “+ (activity<50% of an CFTR amplifier (Compound A)+VX-809 (3 uM) with compound at 10 uM and Compound A at 3 uM)”. `CCc1cc(C(C)(C)C)cc2c(C(=O)O)cc(-c3c(C)oc4ccccc34)nc12` [Compound 178, 6-tert-Butyl-8-ethyl-2-(2-methyl-1-benzofuran-3-yl)quinoline-4-carboxylic acid] was tested, and the Activity was “++ (activity>50% of CFTR amplifier+VX-809 (3 uM) with compound at 10 uM and Compound A at 3 uM)”. For `Cc1c(-c2cc(C(=O)[O-])c3c(O[C@@H](C)C4CCOCC4)ccc(C)c3n2)sc2ccccc12.[Na+]` [Compound 329], the Activity was “++ (activity>50% of CFTR amplifier+VX-809 (3 uM) with compound at 10 uM and Compound A at 3 uM)”. With `Cc1c(-c2cc(C(=O)[O-])c3c(O[C@H]4C[C@H]5CC[C@@H](C4)O5)ccc(C)c3n2)sc2ccccc12.[Na+]` [Compound 353] the Activity was “++ (activity>50% of CFTR amplifier+VX-809 (3 uM) with compound at 10 uM and Compound A at 3 uM)”. For `Cc1c(-c2cc(C(=O)O)c3cc(OC(F)F)cc(C)c3n2)oc2ccccc12` [Compound 118, 6-(Difluoromethoxy)-8-methyl-2-(3-methyl-1-benzofuran-2-yl)quinoline-4-carboxylic acid], the Activity was “++ (activity>50% of CFTR amplifier+VX-809 (3 uM) with compound at 10 uM and Compound A at 3 uM)”.
